Source: patent US12479840B2, “HMG-CoA reductase degradation inducing compound” (Uppthera, priority 2020, dated 2025)

Target: T1, HMG-CoA reductase (Homo sapiens, UniProt P04035)
T1 construct: endogenous in cells; host or cells: HepG2 (Korea Cell Line Bank)
T1 sequence (P04035 1-888): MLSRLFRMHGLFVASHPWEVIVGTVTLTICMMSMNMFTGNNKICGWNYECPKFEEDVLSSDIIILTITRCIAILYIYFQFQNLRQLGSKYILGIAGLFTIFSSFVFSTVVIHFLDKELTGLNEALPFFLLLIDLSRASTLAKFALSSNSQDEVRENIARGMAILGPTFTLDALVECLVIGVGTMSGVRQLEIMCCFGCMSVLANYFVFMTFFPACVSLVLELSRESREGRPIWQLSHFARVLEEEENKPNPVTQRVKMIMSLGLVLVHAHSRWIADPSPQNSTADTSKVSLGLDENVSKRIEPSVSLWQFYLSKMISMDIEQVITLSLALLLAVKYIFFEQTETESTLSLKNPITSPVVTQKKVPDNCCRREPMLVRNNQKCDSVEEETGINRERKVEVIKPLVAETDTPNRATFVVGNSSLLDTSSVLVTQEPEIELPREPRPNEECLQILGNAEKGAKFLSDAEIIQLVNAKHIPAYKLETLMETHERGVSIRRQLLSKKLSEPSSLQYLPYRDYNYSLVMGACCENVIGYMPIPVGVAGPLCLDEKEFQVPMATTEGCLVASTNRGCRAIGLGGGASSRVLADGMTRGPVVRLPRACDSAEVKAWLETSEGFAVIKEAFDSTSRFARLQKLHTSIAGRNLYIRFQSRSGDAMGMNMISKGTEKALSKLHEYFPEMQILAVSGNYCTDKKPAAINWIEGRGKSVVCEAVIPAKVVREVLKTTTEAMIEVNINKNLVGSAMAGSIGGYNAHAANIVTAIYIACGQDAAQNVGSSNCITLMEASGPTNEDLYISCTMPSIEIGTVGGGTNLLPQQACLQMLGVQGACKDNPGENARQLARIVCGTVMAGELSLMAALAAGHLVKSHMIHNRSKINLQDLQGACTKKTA
Assay: HMG-CoA reductase (HMGCR) degradation in HepG2 cells by western blotting
Assay type: cell-based
Conditions: treated for 18 hours, ratio of HMG-CoA reductase to GAPDH, read-out: DC50
Description: HepG2, a human liver cancer cell line, was purchased from the Korea Cell Line Bank (KCLB), Seoul, Korea. The passage in cell culture was maintained at P105 to P110.
The compounds of the present invention were completely dissolved in DMSO and used in the experiment. 2×10^5 cells were seeded for each well of a 12-well plate (SPL), and the cells were cultured in the culture medium in a total volume of 2 ml. Each of the compounds of the present invention and comparative compounds was diluted three folds from the highest concentration of 3 μM to the lowest concentration in 10 points and treated for 18 hours.
Each of the compounds the present invention and comparative compounds was diluted three folds from the highest concentration of 3 μM to the lowest concentration of […] in 10 points and was treated for 18 hours.
For SDS-PAGE and Western blotting, 1×RIPA lysis buffer (Rockland, Cat. No. MB-030-0050; Lot no. 39751), 100× Protease Inhibitor Cocktail (Quartett, Cat. No. PPI1015; Lot no. PCO50038424), Pierce™ BCA protein assay kit (ThermoScientific, Cat. No. 23225; Lot no. UC276876), albumin standard (ThermoScientific, Cat. No. 23209; Lot no. UB269561), 4-15% Mini-PROTEAN TGX stain-free gel (Bio-rad, Cat. No. 4568085; Lot no. L007041B), 10× Tris/Glycine/SDS buffer (Bio-rad, Cat. No. 1610732; Lot no. 10000044375B); 10×TBS (Bio-rad, Cat. No. 1706435; Lot no. 1000045140B), 10% Tween 20 (Cat. No. 1610781; Lot no. L004152B), Color protein standard broad range (NEB, Cat. No. P7719S; Lot no. 10040349), 4× Laemmli sample buffer (Bio-rad, Cat. No. 1610747; Lot no. L004133B), β-mercaptoethanol (Sigma-Aldrich, Cat. No. M3148; Lot no. 60-24-2), SuperBlock™ T20 (TBS) blocking buffer (ThermoScientific, Cat. No. 37536; Lot no. UC282578), 1M sodium azide solution (Sigma-Aldrich, Cat. No. 08591-1 mL-F; Lot no. BCBV4989), α-Rabbit pAb to Ms IgG (abcam, Cat. No. ab97046; Lot no. GR3252115-1), α-Goat pAb to Rb IgG (CST, Cat. No. 7074S; Lot no. 28), α-GAPDH (abcam, Cat. No. ab8245), α-HMGCR (GeneTex, Cat. No. GTX54088; Lot no. 821903509), ECL™ Prime western blotting reagents (GE Healthcare, Cat. No. RPN2232; Lot no. 17001655), Ponceau S solution (Sigma-Aldrich, Cat. No. P7170; Lot no. SLBV4112), Difco™ Skim milk (BD, Cat. No. 232100; Lot no. 8346795), and iBlot® 2 NC Regular stacks (Invitrogen, Cat. No. IB23001; Lot no. 2NR110619-02), were used.
For cell harvesting, the cells were first separated from the plate using trypsin and then washed with the medium and PBS. Specifically, the medium was suctioned off and washed with 1 mL of PBS, and PBS was suctioned off. The cells were treated with 0.5 mL TrypLE™ Express at 37° C. for 7 minutes to separate the cells, and then 0.5 mL of complete medium was added to collect 1 mL of cell culture solution. Then, 1 mL of the cell collection solution was centrifuged at 8,000 rpm for 120 seconds, and the supernatant was removed. After washing with 0.2 mL of PBS, the PBS was removed.
For cell lysis, a lysis buffer was added and cell debris was removed to obtain a cell lysate. Specifically, the cells were treated with 70 μL of 1×RIPA buffer containing a protease inhibitor and incubated for 30 minutes on ice. Then, the cells were centrifuged at 4° C. and 15,000 rpm for 10 minutes to obtain a cell lysate.
Then, a standard curve was obtained using the BCA assay, and the protein mass in the lysate was quantified by substituting the curve. The mixture was incubated at 37° C. for 30 minutes using 20 μL of standard or sample solution, and 200 μL of BCA or Bradford solution, and measured at 562 nm absorbance. Samples were prepared by adding 4× sample buffer so that the quantity of protein added to each well was 15 μg.
Sodium dodecyl sulfate polyacrylamide gel electrophoresis (SDS-PAGE) was performed by setting a running time of 100 minutes at 120 V on a 4-15% Mini-PROTEAN TGX stain-free gel (15 well). Transferring was performed on iBlot® 2 NC Mini stacks at P0 mode of the dry blotting system. […]

Compound | DC50 [nM]
C[C@H]1C=C2C=C[C@H](C)[C@H](CC[C@@H]3C[C@@H](O)CC(=O)O3)[C@H]2[C@@H](OC(=O)C(C)(C)CCC(=O)NCCOCCOCCOCCNc2ccccc2)C1 [Compound 1, (1S,3R,7S,8S,8aR)-8-(2-((2R,4R)-4-hydroxy-6-oxotetrahydro-2H-pyran-2-yl)ethyl)-3,7-dimethyl-1,2,3,7,8,8a-hexahydronaphthalen-1-yl 16,16-dimethyl-13-oxo-1-(phenylamino)-3,6,9-trioxa-12-azaheptadecan-17-oate] | > 500
C[C@H]1C=C2C=C[C@H](C)[C@H](CC[C@@H]3C[C@@H](O)CC(=O)O3)[C@H]2[C@@H](OC(=O)C(C)(C)CCC(=O)NCCOCCOCCOCCOCCNc2cccc3c2C(=O)N(C2CCC(=O)NC2=O)C3=O)C1 (stereo partly drawn) [Compound 4, (1S,3R,7S,8S,8aR)-8-(2-((2R,4R)-4-hydroxy-6-oxotetrahydro-2H-pyran-2-yl)ethyl)-3,7-dimethyl-1,2,3,7,8,8a-hexahydronaphthalen-1-yl 1-((2-(2,6-dioxopiperidin-3-yl)-1,3-dioxoisoindolin-4-yl)amino)-19,19-dimethyl-16-oxo-3,6,9,12-tetraoxa-15-azaicosan-20-oate] | < 50
C[C@H]1C=C2C=C[C@H](C)[C@H](CC[C@@H]3C[C@@H](O)CC(=O)O3)[C@H]2[C@@H](OC(=O)C(C)(C)CCC(=O)NCCOCCOCCOCCOCCOCCNc2cccc3c2C(=O)N(C2CCC(=O)NC2=O)C3=O)C1 (stereo partly drawn) [Compound 5, (1S,3R,7S,8S,8aR)-8-(2-((2R,4R)-4-hydroxy-6-oxotetrahydro-2H-pyran-2-yl)ethyl)-3,7-dimethyl-1,2,3,7,8,8a-hexahydronaphthalen-1-yl 1-((2-(2,6-dioxopiperidin-3-yl)-1,3-dioxoisoindolin-4-yl)amino)-22,22-dimethyl-19-oxo-3,6,9,12,15-pentaoxa-18-azatricosan-23-oate] | < 50
C[C@H]1C=C2C=C[C@H](C)[C@H](CC[C@@H]3C[C@@H](O)CC(=O)O3)[C@H]2[C@@H](OC(=O)C(C)(C)CCC(=O)NCCOCCOCCOCCOCCOCCOCCNc2cccc3c2C(=O)N(C2CCC(=O)NC2=O)C3=O)C1 (stereo partly drawn) [Compound 6, (1S,3R,7S,8S,8aR)-8-(2-((2R,4R)-4-hydroxy-6-oxotetrahydro-2H-pyran-2-yl)ethyl)-3,7-dimethyl-1,2,3,7,8,8a-hexahydronaphthalen-1-yl 1-((2-(2,6-dioxopiperidin-3-yl)-1,3-dioxoisoindolin-4-yl)amino)-25,25-dimethyl-22-oxo-3,6,9,12,15,18-hexaoxa-21-azahexacosan-26-oate] | < 50

Results, then the molecule that gave them:

DC50 [nM] | Compound
< 50 | C[C@H]1C=C2C=C[C@H](C)[C@H](CC[C@@H]3C[C@@H](O)CC(=O)O3)[C@H]2[C@@H](OC(=O)C(C)(C)CCC(=O)NCCOCCOCCNc2cccc3c2C(=O)N(C2CCC(=O)NC2=O)C3=O)C1 (stereo partly drawn) [Compound 2, (1S,3R,7S,8S,8aR)-8-(2-((2R,4R)-4-hydroxy-6-oxotetrahydro-2H-pyran-2-yl)ethyl)-3,7-dimethyl-1,2,3,7,8,8a-hexahydronaphthalen-1-yl 5-((2-(2-(2-((2-(2,6-dioxopiperidin-3-yl)-1,3-dioxoisoindolin-4-yl)amino)ethoxy)ethoxy)ethyl)amino)-2,2-dimethyl-5-oxopentanoate]
< 50 | C[C@H]1C=C2C=C[C@H](C)[C@H](CC[C@@H]3C[C@@H](O)CC(=O)O3)[C@H]2[C@@H](OC(=O)C(C)(C)CCC(=O)NCCOCCOCCOCCNc2cccc3c2C(=O)N(C2CCC(=O)NC2=O)C3=O)C1 (stereo partly drawn) [Compound 3, (1S,3R,7S,8S,8aR)-8-(2-((2R,4R)-4-hydroxy-6-oxotetrahydro-2H-pyran-2-yl)ethyl)-3,7-dimethyl-1,2,3,7,8,8a-hexahydronaphthalen-1-yl 1-((2-(2,6-dioxopiperidin-3-yl)-1,3-dioxoisoindolin-4-yl)amino)-16,16-dimethyl-13-oxo-3,6,9-trioxa-12-azaheptadecan-17-oate]
